Each block holds one compound with its values, some of them ahead of it.
Experiments:
[1] = Henry solubility constant Hcp at 290 K (mol/(m3 Pa)); settings: reference: Thomas et al. (2006)
[2] = Henry solubility constant Hcp at 298.15 K (mol/(m3 Pa))
[3] = Henry solubility constant Hcp at 294 K (mol/(m3 Pa))
[4] = Henry solubility constant Hcp at 311 K (mol/(m3 Pa)); settings: reference: Grollman (1929)
[5] = Henry solubility constant Hcp at 308 K (mol/(m3 Pa)); settings: reference: Guo and Brimblecombe (2007)
[6] = Henry solubility constant Hcp at 288 K (mol/(m3 Pa))
[7] = Henry solubility constant Hcp at 297 K (mol/(m3 Pa))
[8] = Henry solubility constant Hcp at 303 K (mol/(m3 Pa)); settings: reference: Richon et al. (1985)
[9] = Henry solubility constant Hcp at 301 K (mol/(m3 Pa)); settings: reference: Nelson and Hoff (1968)
[10] = Henry solubility constant Hcp at 283 K (mol/(m3 Pa)); settings: reference: Holdren et al. (1984)
[11] = Henry solubility constant Hcp at 293 K (mol/(m3 Pa)); settings: reference: Kames and Schurath (1995)
[12] = Henry solubility constant Hcp at 278 K (mol/(m3 Pa)); settings: reference: De Bruyn et al. (1995a)
[13] = Henry solubility constant Hcp at 284 K (mol/(m3 Pa)); settings: reference: George et al. (1994b)
[14] = reference: Elliott and Rowland (1993)
[15] = reference: Glew and Moelwyn-Hughes (1953)
[16] = reference: Swain and Thornton (1962)
[17] = reference: Gan and Yates (1996)
[18] = reference: Murphy et al. (1983a)
[19] = reference: Mirabel et al. (1996)

SMILES: CBr [bromomethane]
Henry solubility constant Hcp at 290 K [1]: 0.002
Henry solubility constant Hcp ([2]; reference: De Bruyn and Saltzman (1997)): 0.0018
Henry solubility constant Hcp [2, 14]: 0.0017
Henry solubility constant Hcp [2, 15]: 0.0016
Henry solubility constant Hcp [2, 16]: 0.0015
Henry solubility constant Hcp at 294 K [3, 17]: 0.0014

SMILES: C=C [ethene]
Henry solubility constant Hcp at 311 K [4]: 3.4e-05
Henry solubility constant Hcp ([2]; reference: Maaßen (1995)): 4.9e-05
Henry solubility constant Hcp ([2]; reference: Morrison and Billett (1952)): 4.7e-05
Henry solubility constant Hcp ([2]; reference: Orcutt and Seevers (1937a)): 4.8e-05
Henry solubility constant Hcp ([2]; reference: Reichl (1995)): 4.8e-05
Henry solubility constant Hcp ([2]; reference: Winkler (1906)): 4.8e-05

Henry solubility constant Hcp at 308 K [5]: 210
SMILES: O=[N+]([O-])c1ccc(O)cc1 [4-nitrophenol]

SMILES: [N]=O [nitrogen monoxide]
Henry solubility constant Hcp at 288 K ([6]; reference: Komiyama and Inoue (1980)): 2.3e-05
Henry solubility constant Hcp at 297 K ([7]; reference: Zafiriou and McFarland (1980)): 1.3e-05
Henry solubility constant Hcp ([2]; reference: Komiyama and Inoue (1978)): 1.9e-05
Henry solubility constant Hcp ([2]; reference: Winkler (1901)): 1.9e-05

SMILES: CCOC(C)=O [ethyl ethanoate]
Henry solubility constant Hcp at 303 K [8]: 0.043
Henry solubility constant Hcp at 288 K ([6]; reference: Ioffe et al. (1984)): 0.13
Henry solubility constant Hcp at 288 K ([6]; reference: Pividal et al. (1992)): 0.11
Henry solubility constant Hcp at 301 K [9]: 0.057
Henry solubility constant Hcp ([2]; reference: Ammari and Schroen (2019)): 0.052
Henry solubility constant Hcp ([2]; reference: Aprea et al. (2007)): 0.051
Henry solubility constant Hcp ([2]; reference: Butler and Ramchandani (1935)): 0.074
Henry solubility constant Hcp ([2]; reference: Druaux et al. (1998)): 0.066
Henry solubility constant Hcp ([2]; reference: Fenclová et al. (2014)): 0.062
Henry solubility constant Hcp ([2]; reference: Jones et al. (1988)): 0.062
Henry solubility constant Hcp ([2]; reference: Kieckbusch and King (1979b)): 0.058
Henry solubility constant Hcp ([2]; reference: Kutsuna and Kaneyasu (2021)): 0.059
Henry solubility constant Hcp ([2]; reference: Kutsuna et al. (2005)): 0.059
Henry solubility constant Hcp ([2]; reference: Landy et al. (1995)): 0.057

SMILES: CC(=O)OO[N+](=O)[O-] [peroxyacetyl nitrate]
Henry solubility constant Hcp at 283 K [10]: 0.049
Henry solubility constant Hcp at 293 K [11]: 0.04
Henry solubility constant Hcp ([2]; reference: Easterbrook et al. (2023)): 0.03
Henry solubility constant Hcp ([2]; reference: Frenzel et al. (2000)): 0.023
Henry solubility constant Hcp ([2]; reference: Kames et al. (1991)): 0.028

SMILES: Clc1ccc(-c2ccccc2Cl)cc1 [2,4'-dichlorobiphenyl]
Henry solubility constant Hcp ([2]; reference: Charles and Destaillats (2005)): 0.023
Henry solubility constant Hcp [2, 18]: 0.045
Henry solubility constant Hcp at 294 K ([3]; reference: Brownawell (1986)): 0.057

SMILES: Cl/C=C/CCl [trans-1,3-dichloropropene]
Henry solubility constant Hcp at 290 K [1]: 0.015
Henry solubility constant Hcp ([2]; reference: Leistra (1970)): 0.0081

Henry solubility constant Hcp [2, 18]: 0.049
Henry solubility constant Hcp at 294 K ([3]; reference: Brownawell (1986)): 0.11
SMILES: Clc1ccc(Cl)c(-c2ccc(Cl)c(Cl)c2)c1 [2,3',4',5-tetrachlorobiphenyl]

SMILES: O=C(Cl)C(F)(F)F [trifluoroacetylchloride]
Henry solubility constant Hcp [2, 19]: 0.02
Henry solubility constant Hcp at 278 K [12]: 0.0027
Henry solubility constant Hcp at 284 K [13]: 0.02

SMILES: CI [iodomethane]
Henry solubility constant Hcp ([2]; reference: Balls (1980)): 0.002
Henry solubility constant Hcp [2, 14]: 0.002
Henry solubility constant Hcp [2, 15]: 0.0019
Henry solubility constant Hcp ([2]; reference: Hunter-Smith et al. (1983)): 0.0019
Henry solubility constant Hcp [2, 16]: 0.0018
Henry solubility constant Hcp at 294 K [3, 17]: 0.0019

Henry solubility constant Hcp at 297 K ([7]; reference: Xu and Kropscott (2012)): 4e-07
SMILES: C[Si]1(C)O[Si](C)(C)O[Si](C)(C)O[Si](C)(C)O[Si](C)(C)O[Si](C)(C)O1 [dodecamethylcyclohexasiloxane]

SMILES: O=[N+]([O-])c1cccc(O)c1 [3-nitrophenol]
Henry solubility constant Hcp at 308 K [5]: 160

SMILES: O=C(F)C(F)(F)F [trifluoroacetylfluoride]
Henry solubility constant Hcp [2, 19]: 0.03
Henry solubility constant Hcp at 278 K [12]: 0.0095
Henry solubility constant Hcp at 284 K [13]: 0.03

SMILES: C#C [ethyne]
Henry solubility constant Hcp at 288 K ([6]; reference: Billitzer (1902)): 0.00051
Henry solubility constant Hcp at 311 K [4]: 0.00033
Henry solubility constant Hcp ([2]; reference: Gatterer (1926)): 0.00042
Henry solubility constant Hcp ([2]; reference: Jadkar and Chaudhari (1980)): 0.0004
Henry solubility constant Hcp ([2]; reference: Kremann and Hönel (1913)): 0.00037
Henry solubility constant Hcp ([2]; reference: Maillard and Rosenthal (1952)): 0.00025
Henry solubility constant Hcp ([2]; reference: Winkler (1906)): 0.00041

Source: Sander's compilation of Henry's law constants
